Data on 2 molecules can be found in patent US8454938B2, “Treatment of respiratory diseases” (Solaeromed Inc., priority 2005, dated 2013).

The assay concerns allergic bronchoconstriction in Brown Norway rats. Kind of assay: Allergic asthma model: OVA-sensitized and challenged Brown Norway rats, whole body plethysmography (Penh). The format is in vivo, Brown Norway rat. As for the experimental part:
An animal model of allergic asthma was developed by sensitizing Brown Norway rats (BNR) to ovalbumin (OVA) and subsequently challenging them with the same allergen.
Male Brown Norway rats (BN/SsdNhsd) 150-199 g were used. A stock solution prepared containing the following ingredients: 10 mL 0.9% of sterile saline solution, 100 μL of ovalbumin solution 1 mg/mL in saline, 1.5 g Al(OH)3 and 10 μL Bordetella Pertussis purified toxin stock solution 500 ng/mL. The solution is mixed thoroughly but not vortexed and then injected intraperitoneally into each rat using a 1 cc syringe and 25-gauge needle.
The rat is placed in the whole body plethysmograph/chamber for approximately 30 minutes in order to calm down. Baseline pulmonary function is recorded for 30 minutes. A solution of ovalbumin 5% in saline is aerosolized for 5 minutes using an ultrasonic nebulizer from Buxco®. The pulmonary function is recorded for 6 hrs during which the effects of different treatments on airway resistance were evaluated.
A whole body plethysmograph from Buxco® was used to monitor pulmonary function and the effect of perfluorocarbon fluids (PFCs) and/or different gas mixture containing CO2 on constricted airways. The plethysmograph consists of a chamber with a pressure transducer along with humidity and temperature probes connected to an amplifier Max II, which is connected to a personal computer and managed by BioSystem XA software. In addition, there are two flow regulators to pump the air or CO2 containing gas mixture in and out of the chamber, and an ultrasonic nebulizer. The primary advantage of the Buxco® methodology is that it is non-invasive and minimizes stress, with animals allowed to freely roam within the measuring chamber. The evaluation of bronchoconstriction was achieved using the Penh (enhanced pause) (an index of airway obstruction) [see Hamelmann et al., (1997) Noninvasive measurement of airway responsiveness in allergic mice using barometric plethysmography, Am J Respir Crit Care Med […] September; 156(3 Pt 1):766-775, incorporated herein by reference]. […]
A gas mixture containing air and CO2 (2, 5, 8, 10 and 20%, respectively, by volume) was delivered to the plethysmograph chamber as described above. The gas was monitored (O2 and CO2) using a gas analyzer from Buxco® and pulmonary function was recorded during and after cessation of the treatment. All treatments were delivered during the late phase response to OVA challenge. […]
FC-43 is placed in the Arcotech dual chamber jet nebulizer and driven by a gas mixture containing air and 5% CO2 by volume. The concentration of FC-43 was determined as outlined above and averaged about 39 mg/liter. The treatment was delivered for 10 minutes. Two minutes after cessation of the first treatment, salbutamol (1 mg/ml) was delivered for 5 minutes using an ultrasonic nebulizer.
FC-77 is placed in the Arcotech dual chamber jet nebulizer and driven by a gas mixture containing air and 5% CO2 by volume. The treatment was delivered for 10 minutes. For technical reasons pulmonary function was evaluated immediately after cessation of the treatment.
Perfluorodecalin is placed in the Arcotech dual chamber jet nebulizer and driven by a gas mixture containing air and 5% CO2 by volume. The treatment was delivered for 10 minutes. For technical reasons pulmonary function was evaluated immediately after cessation of the treatment.
Perfluorooctylbromide is placed in the Arcotech dual chamber jet nebulizer and driven by a gas mixture containing air and 20% CO2 by volume. The treatment was delivered for 10 minutes. For technical reasons pulmonary function was evaluated immediately after cessation of the treatment.
A mixture of approximately equal amounts of FC-43 and FC-77 was placed in the Arcotech dual chamber jet nebulizer and driven by a gas mixture containing air and 5% CO2 by volume. The treatment was delivered for 10 minutes. […]

Regarding `CC(C)(C)NCC(O)c1ccc(O)c(CO)c1` (stereo not shown) [salbutamol], under “salbutamol 1 mg/ml alone”, the “drop in Penh” value is given as “approximately 60%” and the “duration of drop in Penh before returning to pretreatment levels” value is 5 min. Where the note is “salbutamol 1 mg/ml given after PFC/CO2 treatment”, the duration of response entry is “never returned to pre-treatment levels”. Also, the “drop in Penh (response)” value (salbutamol 1 mg/ml given after PFC/CO2 treatment (FC-43 with 5% CO2 in air, 10 minutes)) is listed as “approximately 70%”.

In the case of `O=C=O` [CO2, carbon dioxide], where the note is “2%, 5%, 8%, 10% and 20% CO2 by volume, balance air”, the “bronchodilation by CO2 alone” value was “acts as a bronchodilator”. The duration of bronchodilation entry (20% CO2 in air alone) is given as “approximately 2 minutes”. Further, where the note is “20% and 8% CO2 compared with 2% and 5% CO2 in air, groups of rats”, the “relaxation of constricted airways (percent reduction of bronchoconstriction), comparison between CO2 concentrations” value is recorded as “significantly (P<0.05) higher”.
